Measurements from ChEMBL document CHEMBL5696442, “Discovery of type II inhibitors of TGFβ-activated kinase 1 (TAK1) and mitogen-activated protein kinase kinase kinase kinase 2 (MAP4K2)” (J Med Chem, 2015).
The source made the active and inactive calls. The calls are words filed in the database; no cut-off is given here.

Key:
[1] = target: MAP/microtubule affinity-regulating kinase 4 (Homo sapiens) (UniProt Q96L34); test: Inhibition of MARK4 (unknown origin) at 10 uM by Ambit Kinomescan binding assay
[2] = target: Epidermal growth factor receptor (Homo sapiens) (UniProt P00533); test: Inhibition of EGFR (unknown origin) at 10 uM by Ambit Kinomescan binding assay relative to control
[3] = target: T1, Atrial natriuretic peptide receptor 2 (Homo sapiens) (UniProt P20594); test: Inhibition of ANPb Lys2 labeling site in human A-375 cells at 0.5 uM by KiNativ Profiling analysis relative to control; assay type: cell-based
T1 sequence (whole entry): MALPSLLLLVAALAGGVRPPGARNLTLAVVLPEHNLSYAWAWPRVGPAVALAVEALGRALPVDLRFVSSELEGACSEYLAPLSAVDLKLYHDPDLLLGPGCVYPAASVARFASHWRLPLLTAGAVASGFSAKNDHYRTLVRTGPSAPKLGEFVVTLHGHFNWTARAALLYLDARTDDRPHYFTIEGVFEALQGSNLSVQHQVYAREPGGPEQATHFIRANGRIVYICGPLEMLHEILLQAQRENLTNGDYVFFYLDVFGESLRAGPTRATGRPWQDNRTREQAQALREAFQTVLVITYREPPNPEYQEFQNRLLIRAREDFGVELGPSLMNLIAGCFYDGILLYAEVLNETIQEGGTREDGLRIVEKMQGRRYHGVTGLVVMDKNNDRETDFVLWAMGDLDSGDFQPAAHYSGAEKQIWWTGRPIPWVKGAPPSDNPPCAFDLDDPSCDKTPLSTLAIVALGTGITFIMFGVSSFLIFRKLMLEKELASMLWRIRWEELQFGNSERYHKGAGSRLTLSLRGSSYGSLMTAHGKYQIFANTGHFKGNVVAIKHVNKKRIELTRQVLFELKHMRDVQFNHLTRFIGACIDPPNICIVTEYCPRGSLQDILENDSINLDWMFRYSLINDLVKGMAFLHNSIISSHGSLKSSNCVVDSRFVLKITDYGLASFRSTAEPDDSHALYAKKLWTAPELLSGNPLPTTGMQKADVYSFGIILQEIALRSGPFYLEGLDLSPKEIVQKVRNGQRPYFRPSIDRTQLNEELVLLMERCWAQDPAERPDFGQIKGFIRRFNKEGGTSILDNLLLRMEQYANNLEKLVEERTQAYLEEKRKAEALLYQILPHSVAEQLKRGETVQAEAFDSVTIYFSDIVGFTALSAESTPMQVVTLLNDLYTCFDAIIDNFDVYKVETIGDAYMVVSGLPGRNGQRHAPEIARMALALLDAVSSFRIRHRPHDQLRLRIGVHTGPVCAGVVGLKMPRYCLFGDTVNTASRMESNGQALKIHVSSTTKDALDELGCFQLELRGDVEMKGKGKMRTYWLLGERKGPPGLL

[4] = target: T2, Serine/threonine-protein kinase TAO1 (Homo sapiens) (UniProt Q7L7X3); test: Inhibition of TAOK1 (unknown origin) at 10 uM by Ambit Kinomescan binding assay relative to control; values are per cent of control
T2 sequence (whole entry): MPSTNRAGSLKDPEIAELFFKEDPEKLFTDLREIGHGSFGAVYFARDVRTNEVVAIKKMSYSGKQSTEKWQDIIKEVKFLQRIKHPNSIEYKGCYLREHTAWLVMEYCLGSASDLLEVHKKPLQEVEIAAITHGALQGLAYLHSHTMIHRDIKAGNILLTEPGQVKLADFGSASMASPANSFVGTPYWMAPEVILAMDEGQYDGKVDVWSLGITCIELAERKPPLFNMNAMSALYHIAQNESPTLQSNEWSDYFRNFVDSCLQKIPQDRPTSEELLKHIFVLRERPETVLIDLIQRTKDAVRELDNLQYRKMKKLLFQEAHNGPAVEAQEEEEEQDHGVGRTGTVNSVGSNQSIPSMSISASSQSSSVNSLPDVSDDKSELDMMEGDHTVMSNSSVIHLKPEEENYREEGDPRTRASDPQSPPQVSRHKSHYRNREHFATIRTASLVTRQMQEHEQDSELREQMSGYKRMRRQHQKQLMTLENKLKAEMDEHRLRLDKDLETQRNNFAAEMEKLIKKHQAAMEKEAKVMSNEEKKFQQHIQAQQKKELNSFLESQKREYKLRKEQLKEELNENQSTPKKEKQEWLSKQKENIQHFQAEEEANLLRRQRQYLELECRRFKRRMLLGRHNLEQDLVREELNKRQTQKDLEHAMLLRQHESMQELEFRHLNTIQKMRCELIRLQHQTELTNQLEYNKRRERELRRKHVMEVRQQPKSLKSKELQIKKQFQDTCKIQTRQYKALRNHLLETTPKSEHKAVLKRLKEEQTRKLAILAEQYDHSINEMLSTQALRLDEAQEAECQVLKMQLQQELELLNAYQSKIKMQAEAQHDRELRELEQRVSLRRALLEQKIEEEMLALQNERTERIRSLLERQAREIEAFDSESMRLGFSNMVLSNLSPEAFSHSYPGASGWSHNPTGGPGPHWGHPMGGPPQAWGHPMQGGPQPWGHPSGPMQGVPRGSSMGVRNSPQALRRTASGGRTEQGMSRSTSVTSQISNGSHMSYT

[5] = target: Protein kinase C delta type (Homo sapiens) (UniProt Q05655); test: Inhibition of PRKCD (unknown origin) at 10 uM by Ambit Kinomescan binding assay
[6] = target: Insulin receptor (Homo sapiens) (UniProt P06213); test: Inhibition of INSR (unknown origin) at 1 uM by Ambit Kinomescan binding assay relative to control; values are per cent of control
[7] = target: Activated CDC42 kinase 1 (Homo sapiens) (UniProt Q07912); test: Inhibition of TNK2 (unknown origin) at 1 uM by Ambit Kinomescan binding assay relative to control
[8] = target: Serine/threonine-protein kinase DCLK3 (Homo sapiens) (UniProt Q9C098); test: Inhibition of DCAMKL3 (unknown origin) at 1 uM by Ambit Kinomescan binding assay relative to control; values are per cent of control
Sequence of Serine/threonine-protein kinase DCLK3 (Homo sapiens) (Q9C098 whole entry): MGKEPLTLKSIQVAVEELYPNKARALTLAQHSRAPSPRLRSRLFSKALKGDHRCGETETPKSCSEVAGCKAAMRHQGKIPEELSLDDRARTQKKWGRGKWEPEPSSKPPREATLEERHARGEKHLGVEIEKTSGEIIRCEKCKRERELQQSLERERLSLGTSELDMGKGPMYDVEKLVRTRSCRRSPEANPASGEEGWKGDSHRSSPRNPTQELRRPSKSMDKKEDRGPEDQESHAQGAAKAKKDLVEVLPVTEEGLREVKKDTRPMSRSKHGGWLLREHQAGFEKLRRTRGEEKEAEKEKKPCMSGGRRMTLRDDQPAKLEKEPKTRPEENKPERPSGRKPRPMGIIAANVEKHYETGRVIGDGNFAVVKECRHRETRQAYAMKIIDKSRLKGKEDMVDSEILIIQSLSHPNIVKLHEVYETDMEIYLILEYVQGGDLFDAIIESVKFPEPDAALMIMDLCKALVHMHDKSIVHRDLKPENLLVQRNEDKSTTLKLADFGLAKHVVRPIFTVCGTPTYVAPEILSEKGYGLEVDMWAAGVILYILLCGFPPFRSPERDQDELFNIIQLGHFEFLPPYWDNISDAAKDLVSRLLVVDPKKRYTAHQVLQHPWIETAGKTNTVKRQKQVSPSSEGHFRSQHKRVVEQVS

Sequence of Protein kinase C delta type (Homo sapiens) (Q05655 whole entry, looked up): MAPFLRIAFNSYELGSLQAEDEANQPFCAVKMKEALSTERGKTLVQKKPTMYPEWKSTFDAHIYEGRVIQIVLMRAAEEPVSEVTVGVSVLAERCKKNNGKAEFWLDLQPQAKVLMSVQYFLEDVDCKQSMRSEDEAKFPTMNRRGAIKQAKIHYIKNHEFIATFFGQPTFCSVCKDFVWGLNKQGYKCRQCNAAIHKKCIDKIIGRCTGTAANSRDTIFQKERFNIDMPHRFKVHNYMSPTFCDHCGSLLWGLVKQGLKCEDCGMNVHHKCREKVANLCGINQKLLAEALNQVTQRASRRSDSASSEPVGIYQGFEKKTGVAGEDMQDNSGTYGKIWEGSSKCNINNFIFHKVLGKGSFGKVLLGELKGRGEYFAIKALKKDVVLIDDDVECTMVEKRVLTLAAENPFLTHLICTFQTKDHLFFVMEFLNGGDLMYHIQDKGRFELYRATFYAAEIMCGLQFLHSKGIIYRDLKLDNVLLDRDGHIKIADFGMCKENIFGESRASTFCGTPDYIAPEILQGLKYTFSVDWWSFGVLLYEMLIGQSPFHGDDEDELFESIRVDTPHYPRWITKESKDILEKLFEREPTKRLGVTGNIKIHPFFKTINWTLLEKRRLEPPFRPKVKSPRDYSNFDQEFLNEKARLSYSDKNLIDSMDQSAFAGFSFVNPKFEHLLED
Sequence of Insulin receptor (Homo sapiens) (P06213 28-758 limits assumed): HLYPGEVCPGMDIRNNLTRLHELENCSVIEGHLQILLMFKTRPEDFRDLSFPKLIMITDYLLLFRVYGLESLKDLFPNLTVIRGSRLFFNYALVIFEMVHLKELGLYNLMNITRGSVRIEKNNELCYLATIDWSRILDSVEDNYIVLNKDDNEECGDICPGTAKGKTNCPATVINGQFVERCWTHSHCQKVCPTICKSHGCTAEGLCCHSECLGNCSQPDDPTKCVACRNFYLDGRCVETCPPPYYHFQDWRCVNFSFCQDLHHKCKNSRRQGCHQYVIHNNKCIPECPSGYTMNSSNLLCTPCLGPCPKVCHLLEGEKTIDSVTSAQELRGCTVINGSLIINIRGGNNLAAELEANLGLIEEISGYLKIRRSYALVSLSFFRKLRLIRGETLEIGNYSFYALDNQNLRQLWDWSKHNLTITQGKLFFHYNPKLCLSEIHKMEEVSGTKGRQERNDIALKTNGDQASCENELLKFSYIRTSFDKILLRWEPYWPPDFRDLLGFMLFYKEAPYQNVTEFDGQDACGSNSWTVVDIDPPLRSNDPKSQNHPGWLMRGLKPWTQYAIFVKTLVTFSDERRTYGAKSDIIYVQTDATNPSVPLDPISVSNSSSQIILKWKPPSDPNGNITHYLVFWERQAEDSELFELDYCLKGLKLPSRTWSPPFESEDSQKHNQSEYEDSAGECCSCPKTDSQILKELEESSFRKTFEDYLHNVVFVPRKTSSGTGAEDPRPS
Sequence of Insulin receptor (Homo sapiens) (P06213 763-1382 limits assumed): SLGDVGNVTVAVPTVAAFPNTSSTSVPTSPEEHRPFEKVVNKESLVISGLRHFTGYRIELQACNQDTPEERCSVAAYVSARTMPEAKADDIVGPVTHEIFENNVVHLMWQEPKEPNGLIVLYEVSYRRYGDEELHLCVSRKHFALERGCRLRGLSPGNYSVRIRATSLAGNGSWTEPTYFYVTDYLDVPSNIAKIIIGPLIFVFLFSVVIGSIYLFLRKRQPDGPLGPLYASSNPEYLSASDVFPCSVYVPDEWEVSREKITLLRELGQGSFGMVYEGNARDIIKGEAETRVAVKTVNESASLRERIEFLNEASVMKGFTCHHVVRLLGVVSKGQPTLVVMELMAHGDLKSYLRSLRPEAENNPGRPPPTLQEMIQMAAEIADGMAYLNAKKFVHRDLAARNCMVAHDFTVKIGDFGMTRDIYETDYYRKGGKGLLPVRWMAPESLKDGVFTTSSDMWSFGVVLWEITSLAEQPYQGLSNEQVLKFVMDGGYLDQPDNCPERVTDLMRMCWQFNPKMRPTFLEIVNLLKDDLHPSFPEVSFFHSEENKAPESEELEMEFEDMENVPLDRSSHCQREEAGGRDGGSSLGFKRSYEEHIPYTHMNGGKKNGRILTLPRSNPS
Sequence of MAP/microtubule affinity-regulating kinase 4 (Homo sapiens) (Q96L34 whole entry): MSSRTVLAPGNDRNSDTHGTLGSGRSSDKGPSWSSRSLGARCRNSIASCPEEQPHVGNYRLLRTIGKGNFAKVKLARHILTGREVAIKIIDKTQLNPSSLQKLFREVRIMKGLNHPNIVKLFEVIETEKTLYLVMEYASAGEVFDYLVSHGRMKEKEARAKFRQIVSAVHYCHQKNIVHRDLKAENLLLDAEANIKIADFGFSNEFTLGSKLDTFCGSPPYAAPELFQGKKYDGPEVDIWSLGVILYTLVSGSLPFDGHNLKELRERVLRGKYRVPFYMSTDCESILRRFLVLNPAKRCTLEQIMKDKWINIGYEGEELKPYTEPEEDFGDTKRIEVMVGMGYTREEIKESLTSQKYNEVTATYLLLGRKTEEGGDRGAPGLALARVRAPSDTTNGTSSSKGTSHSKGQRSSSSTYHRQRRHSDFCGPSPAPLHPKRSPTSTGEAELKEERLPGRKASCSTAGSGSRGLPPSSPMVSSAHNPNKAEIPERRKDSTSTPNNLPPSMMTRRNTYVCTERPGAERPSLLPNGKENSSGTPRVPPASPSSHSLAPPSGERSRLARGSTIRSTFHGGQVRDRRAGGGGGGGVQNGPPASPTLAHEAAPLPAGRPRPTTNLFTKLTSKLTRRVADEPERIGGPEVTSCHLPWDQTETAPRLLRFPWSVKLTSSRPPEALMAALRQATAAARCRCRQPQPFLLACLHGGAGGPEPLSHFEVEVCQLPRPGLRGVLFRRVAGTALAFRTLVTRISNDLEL
Sequence of Epidermal growth factor receptor (Homo sapiens) (P00533 whole entry): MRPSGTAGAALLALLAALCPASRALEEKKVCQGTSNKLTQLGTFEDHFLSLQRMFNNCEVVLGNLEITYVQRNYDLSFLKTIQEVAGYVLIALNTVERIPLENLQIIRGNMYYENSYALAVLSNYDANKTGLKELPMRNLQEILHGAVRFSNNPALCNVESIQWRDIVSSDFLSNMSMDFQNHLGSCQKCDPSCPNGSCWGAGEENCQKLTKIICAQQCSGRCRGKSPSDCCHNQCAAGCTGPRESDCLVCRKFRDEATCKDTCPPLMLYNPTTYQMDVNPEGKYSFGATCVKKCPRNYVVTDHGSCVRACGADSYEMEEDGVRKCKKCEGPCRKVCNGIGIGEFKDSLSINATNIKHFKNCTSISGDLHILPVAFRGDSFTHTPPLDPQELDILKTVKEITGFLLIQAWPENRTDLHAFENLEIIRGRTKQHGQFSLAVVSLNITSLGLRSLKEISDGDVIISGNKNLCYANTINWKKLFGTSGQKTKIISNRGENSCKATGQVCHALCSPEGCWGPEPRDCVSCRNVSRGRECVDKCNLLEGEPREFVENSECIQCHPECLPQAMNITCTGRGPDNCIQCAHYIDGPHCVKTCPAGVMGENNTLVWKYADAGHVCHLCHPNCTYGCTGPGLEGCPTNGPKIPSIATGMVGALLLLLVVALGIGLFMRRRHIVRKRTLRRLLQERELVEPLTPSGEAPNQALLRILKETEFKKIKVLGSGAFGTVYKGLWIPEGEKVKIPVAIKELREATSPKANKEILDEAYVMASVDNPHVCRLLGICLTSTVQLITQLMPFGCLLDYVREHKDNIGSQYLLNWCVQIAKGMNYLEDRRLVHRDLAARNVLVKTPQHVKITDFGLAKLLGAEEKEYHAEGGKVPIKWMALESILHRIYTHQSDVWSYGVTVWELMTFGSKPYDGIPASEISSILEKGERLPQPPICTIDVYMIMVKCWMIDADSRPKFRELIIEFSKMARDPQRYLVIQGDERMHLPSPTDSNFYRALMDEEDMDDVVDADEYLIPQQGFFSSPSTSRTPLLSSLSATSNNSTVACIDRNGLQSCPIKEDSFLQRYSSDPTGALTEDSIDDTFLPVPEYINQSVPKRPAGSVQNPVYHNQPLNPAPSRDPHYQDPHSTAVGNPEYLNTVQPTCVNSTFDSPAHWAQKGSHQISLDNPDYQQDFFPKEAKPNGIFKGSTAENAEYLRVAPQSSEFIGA

SMILES: CCN1CCN(Cc2ccc(NC(=O)c3ccc(C)c(Oc4ccnc5[nH]ccc45)c3)cc2C(F)(F)F)CC1
- inhibition [1]: inactive
- inhibition [2]: 5.6%
- inhibition [3]: -9.4%
- residual activity [4]: 3%
- inhibition [5]: inactive

SMILES: CCN1CCN(Cc2ccc(NC(=O)c3ccc(C)c(/C=C/c4cnc5[nH]ccc5c4OC)c3)cc2C(F)(F)F)CC1
- residual activity [6]: 78%
- inhibition [7]: 5.4%
- residual activity [8]: 100%
